This passage reports IC50 and EC50 results from US20220380347A1, “INHIBITORS OF CYSTEINE PROTEASES AND METHODS OF USE THEREOF” (Pardes Biosciences, Inc., priority 2020, published 2022).

Like-named read-outs stand apart in the source and are kept apart here. Some results are limits rather than exact numbers.

One assay relates to HCov OC43. Kind of assay: HCoV OC43 cytopathic effect (CPE) assay, CellTiter Glo. In kind it is cell-based, human coronavirus (HCov) OC43. A general note: Protection from cytopathic effect is a common read-out in antiviral testing.
The next assay deals with 229E Mpro (Human coronavirus 229E, UniProt P0C6X1). Kind of assay: 229E Mpro enzymatic assay (standard methods, SARS-CoV2 Mpro assay given as exemplary). In kind it is biochemical, human coronavirus (HCov) 229E. Summed up: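 IC50 for 229E Mpro by standard methods; exemplary SARS-CoV-2 protocol used C-His6-tagged Mpro from E. coli, 25 nM enzyme, 25 μM substrate (Km 13.5 μM), in Tris-HCl pH 7.3, NaCl, EDTA, TCEP, 0.1% BSA. Inhibition normalised to no-compound and full-effect controls; four-parameter fit.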
Sequence of 229E Mpro (P0C6X1 2966-3267): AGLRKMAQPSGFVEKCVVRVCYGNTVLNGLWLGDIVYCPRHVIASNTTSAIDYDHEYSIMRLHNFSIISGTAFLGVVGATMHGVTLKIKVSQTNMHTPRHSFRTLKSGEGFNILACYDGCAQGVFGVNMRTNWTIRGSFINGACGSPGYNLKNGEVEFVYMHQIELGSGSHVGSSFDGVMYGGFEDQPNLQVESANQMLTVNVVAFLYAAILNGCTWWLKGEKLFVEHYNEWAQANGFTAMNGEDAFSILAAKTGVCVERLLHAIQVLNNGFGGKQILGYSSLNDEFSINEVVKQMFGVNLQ

Assay [1] addresses COVID-19 (nCoV-2019, SARS-CoV2) Mpro (Severe acute respiratory syndrome coronavirus 2, UniProt P0DTD1). Kind of assay: COVID-19 (nCoV-2019, SARS-CoV2) Mpro enzymatic assay. In kind it is biochemical. The conditions noted are these: 25 nM Mpro, 25 μM substrate; read-out: COVID-19 Mpro IC50.
Where [2] appears, read: Betacoronavirus 1, OC43, read-out: OC43 IC50 (uM) MEDIAN, median.
The mark [3] stands for this setting: read-out: OC43 IC50 (uM) MEDIAN, median.

As for `CC(C)(C)c1ccc(N(C(=O)[C@H]2CCC(C)(C)N2C#N)C(C(=O)NC2CCCCC2)c2cccnc2)cc1` (single isomer, unassigned) [Compound 262 Isomer 2], the IC50 fell in the range of 10 to 30 µM with HCov OC43 (read-out: OC43 IC50 (uM) MEDIAN, median, listed as 262 Isomer 2) and 2 to 10 µM in assay [1]. The EC50 at 229E Mpro (229E Mpro EC50) was < 2 µM.
`CC(C)(C)c1ccc(N(C(=O)[C@H]2CC(=O)CN2C#N)C(C(=O)NC2CCCCC2)c2cccnc2)cc1` (single isomer, unassigned) [Compound 278 Isomer 1]: the IC50 was in the range of 10 to 30 µM with HCov OC43 (setting [2]) and 2 to 10 µM in assay [1]. Besides, the EC50 at 229E Mpro (229E Mpro EC50) is < 2 µM.
Consider `CC1(O)C[C@H](C(=O)N(c2ccc(C(C)(C)C)cc2)C(C(=O)NC2CCCCC2)c2cccnc2)N(C#N)C1` (single isomer, unassigned) [Compound 284 Isomer 1], for which the IC50 was 10 to 30 µM in the assay with HCov OC43 (read-out: OC43 IC50 (uM) MEDIAN, median, listed as 284 Isomer 1) and 2 to 10 µM in assay [1]. Moreover, on 229E Mpro (read-out: 229E Mpro EC50), the EC50 is < 2 µM.
As for `CO[C@@H]1C[C@H](C(=O)N(c2ccc(C(C)(C)C)cc2)C(C(=O)NC2CCCCC2)c2cccnc2)N(C#N)C1` (single isomer, unassigned) [Compound 292 Isomer 1], the IC50 (in the assay on HCov OC43 (setting [2]); in assay [1]) was 2 to 10 µM each time. The EC50 on 229E Mpro (229E Mpro EC50) is < 2 µM.
For the molecule `CO[C@H]1C[C@H](C(=O)N(c2ccc(C(C)(C)C)cc2)C(C(=O)NC2CCCCC2)c2cccnc2)N(C#N)C1` (single isomer, unassigned) [Compound 293 Isomer 2], the IC50 in the assay with HCov OC43 (read-out: OC43 IC50 (uM) MEDIAN, median, listed as 293 Isomer 2) lay within 10 to 30 µM; in assay [1], 10 to 30 µM. Also, the EC50 on 229E Mpro (229E Mpro EC50) was in the range of 2 to 10 µM.
As to `CC(C)(C)O[C@@H]1C[C@H](C(=O)N(c2ccc(C(C)(C)C)cc2)C(C(=O)NC2CCCCC2)c2cccnc2)N(C#N)C1` (single isomer, unassigned) [Compound 299 Isomer 1], the IC50 in the assay with HCov OC43 (read-out: OC43 IC50 (uM) MEDIAN, median, listed as 299 Isomer 1) was 10 to 30 µM; in assay [1], 10 to 30 µM. At 229E Mpro (229E Mpro EC50), this molecule came in with a concentration for a half-maximal effect (EC50) of 10 to 30 µM.
With `CC(C)(C)c1ccc(N(C(=O)[C@H]2C[C@H](Oc3ccccc3)CN2C#N)C(C(=O)NC2CCCCC2)c2cccnc2)cc1` (single isomer, unassigned) [Compound 308 Isomer 1], the IC50 (in the assay on HCov OC43 (setting [2]); in assay [1]) was > 30 µM each time. At 229E Mpro (229E Mpro EC50), the EC50 was > 30 µM.
`CC(C)(C)c1ccc(N(C(=O)[C@H]2Cc3ccccc3CN2C#N)C(C(=O)NC2CCCCC2)c2cccnc2)cc1` (single isomer, unassigned) [Compound 374 Isomer 1]: the IC50 is > 30 µM with HCov OC43 (read-out: OC43 IC50 (uM) MEDIAN, median, listed as 374 Isomer 1) and > 30 µM in assay [1]. At 229E Mpro (229E Mpro EC50), the EC50 is > 30 µM.
In the case of `CC(C)(C)c1ccc(N(C(=O)[C@H]2Cc3ccccc3CN2C#N)C(C(=O)NC2CCCCC2)c2cccnc2)cc1` (single isomer, unassigned) [Compound 374 Isomer 2], the IC50 in the assay on HCov OC43 (read-out: OC43 IC50 (uM) MEDIAN, median, listed as 374 Isomer 2) was 2 to 10 µM; in assay [1] it was < 2 µM. Further, the EC50 at 229E Mpro (229E Mpro EC50) is < 2 µM.
Turning to `COc1ccc(NC(=O)C(c2cccnc2)N(C(=O)[C@H]2CCCN2C#N)c2ccc(C(C)(C)C)cc2)cn1` (single isomer, unassigned) [Compound 407 Isomer 1], the IC50 in the assay with HCov OC43 (read-out: OC43 IC50 (uM) MEDIAN, median, listed as 407 Isomer 1) is 2 to 10 µM; in assay [1], < 2 µM. The EC50 on 229E Mpro (229E Mpro EC50) was < 2 µM.
In the case of `COc1ccc(NC(=O)C(c2cccnc2)N(C(=O)[C@H]2CCCN2C#N)c2ccc(C(C)(C)C)cc2)cn1` (single isomer, unassigned) [Compound 407 Isomer 2], the IC50 in the assay with HCov OC43 (read-out: OC43 IC50 (uM) MEDIAN, median, listed as 407 Isomer 2) was > 30 µM; in assay [1], > 30 µM. The molecule also yielded an EC50 at 229E Mpro (229E Mpro EC50) of 10 to 30 µM.
In the case of `CC(C)(C)c1ccc(N(C(=O)[C@H]2CCCN2C#N)C(C(=O)NCC2COC2)c2cccnc2)cc1` (single isomer, unassigned) [Compound 419 Isomer 2], the IC50 (in the assay with HCov OC43 (setting [3]); in assay [1]) was 2 to 10 µM throughout. In addition, the EC50 on 229E Mpro (read-out: 229E Mpro EC50) was < 2 µM.
For the molecule `COC(C)(C)CNC(=O)C(c1cccnc1)N(C(=O)[C@H]1CCCN1C#N)c1ccc(C(C)(C)C)cc1` (single isomer, unassigned) [Compound 427 Isomer 1], the half-maximal inhibitory concentration (IC50) was > 30 µM in the assay on HCov OC43 (read-out: OC43 IC50 (uM) MEDIAN, median, listed as 427 Isomer 1) and 10 to 30 µM in assay [1]. In addition, the EC50 at 229E Mpro (229E Mpro EC50) fell in the range of 2 to 10 µM.
For `CN(C)CCNC(=O)C(c1cccnc1)N(C(=O)[C@H]1CCCN1C#N)c1ccc(C(C)(C)C)cc1` (single isomer, unassigned) [Compound 435 Isomer 2], the IC50 with HCov OC43 (read-out: OC43 IC50 (uM) MEDIAN, median, listed as 435 Isomer 2) is 10 to 30 µM; in assay [1] it was 10 to 30 µM. Also, the EC50 at 229E Mpro (read-out: 229E Mpro EC50) was < 2 µM.
Take `CC(C)(C)c1ccc(N(C(=O)[C@H]2CCCN2C#N)C(C(=O)NCc2ccncc2)c2cccnc2)cc1` (single isomer, unassigned) [Compound 439 Isomer 1]: the IC50 in the assay with HCov OC43 (setting [2]) fell in the range of 10 to 30 µM; in assay [1], 2 to 10 µM. Moreover, on 229E Mpro (229E Mpro EC50), the EC50 is < 2 µM.
As for `CC(C)(C)c1ccc(N(C(=O)[C@H]2CCCN2C#N)C(C(=O)NCc2ccncc2)c2cccnc2)cc1` (single isomer, unassigned) [Compound 439 Isomer 2], the IC50 with HCov OC43 (setting [3]) lay in the range of 10 to 30 µM; in assay [1], 2 to 10 µM. At 229E Mpro (read-out: 229E Mpro EC50), the EC50 was < 2 µM.
`Cc1c[nH]c2cc(N(C(=O)[C@H]3C[C@@H](O)CN3C#N)C(C(=O)NC3CCC(F)(F)CC3)c3cncc(F)c3)ccc12` (single isomer, unassigned) [Compound 747b Isomer 2]: the IC50 (in the assay with HCov OC43 (setting [3]); in assay [1]) was 2 to 10 µM in each case. Further, the EC50 at 229E Mpro (read-out: 229E Mpro EC50) is < 2 µM.
As for `N#CN1C[C@H](O)C[C@@H]1C(=O)N(c1ccc(C2CC2)cc1F)C(C(=O)NC1CCCCC1)c1cccnc1` (single isomer, unassigned) [Compound 763 Isomer 1], the IC50 (in the assay on HCov OC43 (setting [2]); in assay [1]) was < 2 µM in each case. Besides, the EC50 at 229E Mpro (229E Mpro EC50) was < 2 µM.
Turning to `N#CN1C[C@H](O)C[C@@H]1C(=O)N(c1ccc(C2CC2)c(F)c1)C(C(=O)NC1CCCCC1)c1cccnc1` (single isomer, unassigned) [Compound 767 Isomer 2], the IC50 (in the assay with HCov OC43 (setting [3]); in assay [1]) was 2 to 10 µM each time. In addition, the EC50 at 229E Mpro (read-out: 229E Mpro EC50) was < 2 µM.
As for `N#CN1C[C@H](O)C[C@@H]1C(=O)N(c1ccc(C(F)(C(F)(F)F)C(F)(F)F)cc1)C(C(=O)NC1CCCCC1)c1cccnc1` (single isomer, unassigned) [Compound 779 Isomer 2], the half-maximal inhibitory concentration (IC50) (in the assay with HCov OC43 (setting [3]); in assay [1]) was 2 to 10 µM each time. The molecule also returned a concentration giving a half-maximal response (EC50) on 229E Mpro (229E Mpro EC50) of 2 to 10 µM.
Turning to `N#CN1C[C@H](O)C[C@@H]1C(=O)N(c1ccc(S(F)(F)(F)(F)F)cc1)C(C(=O)NC1CCCCC1)c1cccnc1` (single isomer, unassigned) [Compound 791 Isomer 1], the IC50 (in the assay on HCov OC43 (setting [2]); in assay [1]) was < 2 µM each time. Also, on 229E Mpro (229E Mpro EC50), the EC50 was < 2 µM.
Take `N#CN1C[C@H](O)C[C@@H]1C(=O)N(c1ccc(C2(C(F)(F)F)CC2)cc1)C(C(=O)NC1CCC(F)(F)CC1)c1cncc(F)c1` (single isomer, unassigned) [Compound 815a Isomer 1]: the IC50 (in the assay with HCov OC43 (setting [2]); in assay [1]) was < 2 µM each time. Moreover, the EC50 on 229E Mpro (229E Mpro EC50) is < 2 µM.
Consider `N#CN1C[C@H](O)C[C@@H]1C(=O)N(c1ccc(C2(C(F)(F)F)CC2)cc1)C(C(=O)NC1CCC(F)(F)CC1)c1cncc(F)c1` (single isomer, unassigned) [Compound 815a Isomer 2], for which the IC50 (with HCov OC43 (setting [3]); in assay [1]) was < 2 µM in each case. Also, the EC50 at 229E Mpro (read-out: 229E Mpro EC50) was < 2 µM.
Regarding `N#CN1C[C@@H](OC(F)F)C[C@@H]1C(=O)N(c1ccc(S(F)(F)(F)(F)F)cc1)C(C(=O)NC1CCC(F)(F)CC1)c1cncc(F)c1` (single isomer, unassigned) [Compound 823a Isomer 1], the IC50 (in the assay with HCov OC43 (setting [2]); in assay [1]) was < 2 µM throughout. For the same molecule, the EC50 at 229E Mpro (229E Mpro EC50) is < 2 µM.
`N#CN1C[C@@H](OC(F)F)C[C@@H]1C(=O)N(c1ccc(S(F)(F)(F)(F)F)cc1)C(C(=O)NC1CCC(F)(F)CC1)c1cncc(F)c1` (single isomer, unassigned) [Compound 823a Isomer 2]: the figures for the IC50 (in the assay on HCov OC43 (setting [3]); in assay [1]) were 2 to 10 µM and < 2 µM, respectively. The EC50 on 229E Mpro (read-out: 229E Mpro EC50) was < 2 µM.
Turning to `CC(C)(C)c1ccc(N(C(=O)[C@H]2CC(F)(F)CN2C#N)C(C(=O)NC2CCCCC2)c2cccnc2)cc1` (single isomer, unassigned) [Compound 876 Isomer 2], the IC50 was > 30 µM in the assay with HCov OC43 (read-out: OC43 IC50 (uM) MEDIAN, median, listed as 876 Isomer 2) and 10 to 30 µM in assay [1]. Besides, the EC50 at 229E Mpro (read-out: 229E Mpro EC50) is < 2 µM.
On to `CC(C)(C)c1ccc(N(C(=O)[C@H]2[C@H](F)CCN2C#N)C(C(=O)NC2CCCCC2)c2cccnc2)cc1` (single isomer, unassigned) [Compound 910 Isomer 1], for which the IC50 (in the assay on HCov OC43 (setting [2]); in assay [1]) was < 2 µM throughout. Moreover, on 229E Mpro (229E Mpro EC50), the EC50 is < 2 µM.
On to `CC(C)(C)c1ccc(N(C(=O)[C@H]2[C@H](F)CCN2C#N)C(C(=O)NC2CCCCC2)c2cccnc2)cc1` (single isomer, unassigned) [Compound 910 Isomer 2], for which the IC50 fell in the range of 2 to 10 µM in the assay on HCov OC43 (setting [3]) and 10 to 30 µM in assay [1]. For the same molecule, the EC50 on 229E Mpro (read-out: 229E Mpro EC50) is < 2 µM.

The term IC50 denotes the concentration that inhibits the measured activity by half. For orientation: EC50 means the concentration needed to bring the measured effect to its halfway point.
